Read-outs that look alike come from different tables or passages of the source.
Columns and labels:
[1] = tested on: Key Broadleaf Weed and Crop Species; test: Post-Emergent Test II (Table 5); assay type: in vivo; conditions: post-emergence, 336 h; for pest or weed control at 70 g/ha: application rate 70 (kg ai/ha; footnote: g ai/ha); for pest or weed control at 140 g/ha: application rate 140 (kg ai/ha; footnote: g ai/ha)
Outline: (§1)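 Plants grown in a greenhouse (~15 h photoperiod, 23-29° C day) to first or second true leaf stage were sprayed post-emergence at 187 L/ha with compound in acetone/DMSO-based aqueous spray containing crop oil concentrate and surfactant, applied at a high rate plus ½× to 1/16× serial rates. Injury was scored visually 14 days later, 0-100% versus untreated plants.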

[2] = tested on: Key Grass and Sedge Weeds as well as Grass Crops; test: Post-Emergent Test II (Table 6); assay type: in vivo; conditions: post-emergence, 336 h, 14 days after application; for pest or weed control at 70 g/ha: 70 g ai/ha; for pest or weed control at 140 g/ha: 140 g ai/ha
Outline: as §1

[3] = Abutilon theophrasti, ABUTH: velvetleaf (Abutilon theophrasti), read-out: Visual Growth Reduction (%) 14 Days After Application ABUTH
[4] = Amaranthus retroflexus, AMARE: redroot pigweed (Amaranthus retroflexus), read-out: Visual Growth Reduction (%) 14 Days After Application AMARE
[5] = Brassica napus, BRSSS: oilseed rape, canola (Brassica napus), read-out: Visual Growth Reduction (%) 14 Days After Application BRSSS
[6] = Chenopodium album, CHEAL: lambsquarters (Chenopodium album), read-out: Visual Growth Reduction (%) 14 Days After Application CHEAL
[7] = Euphorbia heterophylla, EPHHL: wild poinsettia (Euphorbia heterophylla), read-out: Visual Growth Reduction (%) 14 Days After Application EPHHL
[8] = Helianthus annuus, HELAN: sunflower (Helianthus annuus), read-out: Visual Growth Reduction (%) 14 Days After Application HELAN
[9] = Viola tricolor, VIOTR: wild pansy (Viola tricolor), read-out: Visual Growth Reduction (%) 14 Days After Application VIOTR
[10] = DIGSA: crabgrass (Digitaria sanguinalis), read-out: Visual Growth Reduction (%) 14 Days After Application DIGSA
[11] = ECHSS, read-out: Visual Growth Reduction (%) 14 Days After Application ECHSS
[12] = ORYSS (crop), read-out: Visual Growth Reduction (%) 14 Days After Application ORYSS
[13] = SETFA: giant foxtail (Setaria faberi), read-out: Visual Growth Reduction (%) 14 Days After Application SETFA
[14] = SORVU: grain sorghum (Sorghum vulgare), read-out: Visual Growth Reduction (%) 14 Days After Application SORVU
[15] = TRZSS (crop), read-out: Visual Growth Reduction (%) 14 Days After Application TRZSS
[16] = ZEAMX: maize, corn (Zea mays), read-out: Visual Growth Reduction (%) 14 Days After Application ZEAMX
[17] = CYPSS, read-out: Visual Growth Reduction (%) 14 Days After Application CYPSS

Row | Compound | pest or weed control at 70 g/ha [1, 3] [%] | pest or weed control at 140 g/ha [1, 3] [%] | pest or weed control at 70 g/ha [1, 4] [%] | pest or weed control at 140 g/ha [1, 4] [%] | pest or weed control at 70 g/ha [1, 5] [%] | pest or weed control at 140 g/ha [1, 5] [%] | pest or weed control at 70 g/ha [1, 6] [%] | pest or weed control at 140 g/ha [1, 6] [%] | pest or weed control at 70 g/ha [1, 7] [%] | pest or weed control at 140 g/ha [1, 7] [%] | pest or weed control at 70 g/ha [1, 8] [%] | pest or weed control at 140 g/ha [1, 8] [%] | pest or weed control at 70 g/ha [1, 9] [%] | pest or weed control at 140 g/ha [1, 9] [%] | pest or weed control at 70 g/ha [2, 10] [%] | pest or weed control at 140 g/ha [2, 10] [%] | pest or weed control at 70 g/ha [2, 11] [%] | pest or weed control at 140 g/ha [2, 11] [%] | pest or weed control at 70 g/ha [2, 12] [%] | pest or weed control at 140 g/ha [2, 12] [%] | other results
1 | COC(=O)c1nc(-c2ccc(Cl)c(F)c2SC)cc(N)c1Cl [Compound 58] | 85 to 94 | 85 to 94 | 85 to 94 | 95 to 100 | 30 to 44 | 60 to 74 | 95 to 100 | 95 to 100 | 0 to 29 | 0 to 29 | 0 to 29 | 75 to 84 | 0 to 29 | 0 to 29 | 0 to 29 | 0 to 29 | 0 to 29 | 0 to 29 | 0 to 29 | 0 to 29 | pest or weed control at 70 g/ha [2, 13]: 0 to 29%; pest or weed control at 140 g/ha [2, 13]: 0 to 29%; pest or weed control at 70 g/ha [2, 14]: 0 to 29%; pest or weed control at 140 g/ha [2, 14]: 0 to 29%; pest or weed control at 70 g/ha [2, 15]: 0 to 29%; pest or weed control at 140 g/ha [2, 15]: 0 to 29%; pest or weed control at 70 g/ha [2, 16]: 0 to 29%; pest or weed control at 140 g/ha [2, 16]: 0 to 29%
2 | COC(=O)c1nc(-c2ccc(Cl)c(OC)c2C(F)F)cc(N)c1Cl [Compound 60, methyl 4-amino-3-chloro-6-(4-chloro-2-(difluoromethyl)-3-methoxyphenyl)picolinate] | 95 to 100 | 95 to 100 | 95 to 100 | 95 to 100 | 60 to 74 | 75 to 84 | 95 to 100 | 95 to 100 | 60 to 74 | 60 to 74 | 85 to 94 | 85 to 94 | 30 to 44 | 30 to 44 | 0 to 29 | 30 to 44 | 0 to 29 | 30 to 44 | 0 to 29 | 0 to 29 | pest or weed control at 70 g/ha [2, 17]: 30 to 44%; pest or weed control at 140 g/ha [2, 17]: 30 to 44%; pest or weed control at 70 g/ha [2, 13]: 0 to 29%; pest or weed control at 140 g/ha [2, 13]: 0 to 29%; pest or weed control at 70 g/ha [2, 14]: 0 to 29%; pest or weed control at 140 g/ha [2, 14]: 45 to 59%; pest or weed control at 70 g/ha [2, 15]: 0 to 29%; pest or weed control at 140 g/ha [2, 15]: 0 to 29%; pest or weed control at 70 g/ha [2, 16]: 0 to 29%; pest or weed control at 140 g/ha [2, 16]: 0 to 29%
3 | Cc1c(-c2cc(N)c(Cl)c(C(=O)O)n2)ccc(C(F)(F)F)c1F [Compound 61, 4-amino-3-chloro-6-(3-fluoro-2-methyl-4-(trifluoromethyl)phenyl)picolinic acid] | 85 to 94 | 85 to 94 | 0 to 29 | 0 to 29 | 45 to 59 | 60 to 74 | 85 to 94 | 85 to 94 | 95 to 100 | 95 to 100 | 85 to 94 | 85 to 94 | 0 to 29 | 0 to 29 | 0 to 29 | 0 to 29 | 85 to 94 | 85 to 94 | 0 to 29 | 0 to 29 | pest or weed control at 70 g/ha [2, 13]: 45 to 59%; pest or weed control at 140 g/ha [2, 13]: 60 to 74%; pest or weed control at 70 g/ha [2, 14]: 0 to 29%; pest or weed control at 140 g/ha [2, 14]: 0 to 29%; pest or weed control at 70 g/ha [2, 15]: 0 to 29%; pest or weed control at 140 g/ha [2, 15]: 30 to 44%; pest or weed control at 70 g/ha [2, 16]: 0 to 29%; pest or weed control at 140 g/ha [2, 16]: 0 to 29%
4 | COC(=O)c1nc(-c2ccc(Cl)c(F)c2C)nc(N)c1OC [Compound 63] | 0 to 29 | 0 to 29 | 85 to 94 | 85 to 94 | 30 to 44 | 45 to 59 | 85 to 94 | 85 to 94 | 0 to 29 | 0 to 29 | 75 to 84 | 75 to 84 | 0 to 29 | 0 to 29 | 0 to 29 | 0 to 29 | 0 to 29 | 0 to 29 | 0 to 29 | 0 to 29 | pest or weed control at 70 g/ha [2, 17]: 0 to 29%; pest or weed control at 140 g/ha [2, 17]: 0 to 29%; pest or weed control at 70 g/ha [2, 13]: 0 to 29%; pest or weed control at 140 g/ha [2, 13]: 0 to 29%; pest or weed control at 70 g/ha [2, 14]: 0 to 29%; pest or weed control at 140 g/ha [2, 14]: 0 to 29%; pest or weed control at 70 g/ha [2, 15]: 0 to 29%; pest or weed control at 140 g/ha [2, 15]: 0 to 29%; pest or weed control at 70 g/ha [2, 16]: 0 to 29%; pest or weed control at 140 g/ha [2, 16]: 0 to 29%

Reference: US10765114B2, “4-amino-6-(pyridyl and 2-substitutedphenyl)-picolinates and 6-amino-2-(pyridyl and 2-substitutedphenyl)-pyrimidine-4-carboxylates and their use as herbicides” (Dow AgroSciences LLC, priority 2013, dated 2020)
